In patent US20080031817A1, “Inhibition Of Superoxide Dismutase By Tetrathiomolybdate: Identification Of New Anti-Angiogenic And Antitumor Agents” (priority 2004, published 2008):
Each block holds one compound with its values, some of them ahead of it.

Key:
bovine SOD1 [1] = molecular target: T1, bovine SOD1 (Bos taurus, UniProt P00442); experiment: CuZn SOD (SOD1) activity assay, xanthine/xanthine oxidase with WST-1; format: biochemical; conditions: for inhibition of SOD1 activity in vitro: in vitro enzyme assay, WST-1
T1 sequence (P00442 whole entry): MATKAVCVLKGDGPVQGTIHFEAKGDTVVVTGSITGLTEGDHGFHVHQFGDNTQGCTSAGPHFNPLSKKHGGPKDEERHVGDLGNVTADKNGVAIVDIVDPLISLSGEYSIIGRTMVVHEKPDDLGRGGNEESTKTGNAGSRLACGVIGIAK
Protocol: SOD1 was assayed with a commercially available kit (Dojindo) based on the xanthine/xanthine oxidase superoxide generation reaction coupled to a water soluble tetrazolium salt, WST-1.
Standard curves (0-13 nM) of bovine SOD were generated using the SOD1 assay described above in the presence of increasing concentrations of ATN-224. Appropriate blanks comprising ATN-224 in the absence of SOD1 enzyme were also generated. The inhibition of SOD1 activity was calculated from these standard curves.

HUVEC = HUVEC proliferation assay (acid phosphatase method); format: cell-based, human
Protocol: Alternatively, cells at a density of 6000/well are plated in wells of 48 well microplates on 0.1% gelatin in 200 μl M200/2% FCS, and incubated at 37° C. in a humid atmosphere of 5% CO2 for 16 hrs. Compounds to be tested are diluted in M200 supplemented with 2% FCS and 1 ng/ml FGF-2 and added to the cells. Positive control contain no compound, and negative controls contain no compound or FGF-2. Cells are incubated at 37° C./5% CO2 for 72 hours. Cells are enumerated indirectly using the acid phosphatase method (Connolly, D T et al., 1986, Anal. Biochem 152:136-140). After removal of growth medium, the cells are lysed in buffer containing Triton X-100. The chromogenic substrate for acid phosphatase, p-nitrophenyl phosphate is added at a concentration of 100 mM. After incubation for 75 min. at 37° C., the reaction is stopped with 1N NaOH, and color is measured using a multiwell microplate reader.
Cells at a density of 6000/well were plated in wells of 48 well microplates on 0.1% gelatin in 200 μl M200/2% FCS, and were incubated at 37° C. in a humid atmosphere of 5% CO2 for 16 hrs. Compounds to be tested were diluted in M200 supplemented with 2% FCS and 1 ng/ml FGF-2 and added to the cells. Positive control contained no compound, and negative controls contained no compound or FGF-2. Cells were incubated at 37° C./5% CO2 for 72 hours. Cells were enumerated indirectly using the acid phosphatase method. After removal of growth medium, the cells were lysed in buffer containing the detergent Triton X-100. The chromogenic substrate for acid phosphatase, p-nitrophenyl phosphate was added at a concentration of 100 mM. After incubation for 75 min. at 37° C., the reaction was stopped with 1N NaOH and color was measured using a multiwell microplate reader.
HUVEC proliferation assays were performed as described. Increasing concentrations of ATN-224 was added to cultures in the presence or absence of 100 μM MnTBAP (AG Scientific, San Diego). Cell number was estimated using the acid phosphatase method described above.

bovine SOD1 [2] = molecular target: T1, bovine SOD1; experiment: Removal of copper from SOD1 (gel filtration, ICP-MS); format: biochemical
Protocol: […] The protein was then purified by gel filtration chromatography. The sample was then analyzed for molybdenum content and copper content by ICP-MS.

intracellular CuZnSOD = molecular target: T2, intracellular CuZnSOD (Homo sapiens, UniProt P00441); experiment: Intracellular CuZnSOD activity in HUVECs; format: cell-based
T2 construct: Lysates were assayed for SOD1 activity as described above; endogenous in cells; host or cells: HUVEC
T2 sequence (P00441 whole entry): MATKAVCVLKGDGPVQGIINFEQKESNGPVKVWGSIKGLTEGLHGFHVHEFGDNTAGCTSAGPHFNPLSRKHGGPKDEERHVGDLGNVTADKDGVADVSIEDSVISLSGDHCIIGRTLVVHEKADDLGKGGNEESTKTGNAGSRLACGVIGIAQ
Protocol: HUVECs were plated on 0.1% gelatin at 2-4×10^6 cells in T-25 flasks in M200 medium with 2% FCS. Cells were incubated at 37° C./5% CO2 for 16 hrs. Cells were rinsed with M200/2% FCS and incubated for a further 2 hrs in medium to which varying concentration of ATN-224 and FGF-2 (at 1 ng/ml) were added. At various intervals, medium was removed and the cells lysed in lysis buffer. Lysates were assayed for SOD1 activity as described above. Lysates were also analyzed by Western blot using a SOD1-specific polyclonal antibody (Biodesign, ME). These experiments were repeated in increasing concentrations of serum.

[3] = system: superoxide anions in HUVECs; conditions: 72 hrs, ATN-224 at IC50, 5 μM DHE, vs control HUVECs
Protocol: HUVECs were plated in 6 well cluster plates on 0.1% gelatin at 6000 cells/well in M200/2% FCS. Cells were incubated at 37° C./5% CO2 for 16 hrs. Cells were rinsed, and ATN-224 was added in medium supplemented with 1 ng/ml FGF-2. Cells were incubated at 37 ° for 72 hours, rinsed in PBS, and DHE (Molecular probes) was added (5 μM) to the cells. Cells were then visualized microscopically using a fluorescent lamp and a red filter.

angiogenesis = experiment: Matrigel plug assay (hemoglobin); format: in vivo; conditions: mice
Protocol: This assay is performed essentially as described by Passaniti et al. (Lab Invest. 67:519-528 (1992). Ice-cold Matrigel® (e.g., 500 μL) (Collaborative Biomedical Products, Inc., Bedford, Mass.) is mixed with heparin (e.g., 50 μg/ml), FGF-2 (e.g., 400 ng/ml) and the compound to be tested. In some assays, bFGF may be substituted with tumor cells as the angiogenic stimulus. The Matrigel® mixture is injected subcutaneously into 4-8 week-old athymic nude mice at sites near the abdominal midline, preferably 3 injections per mouse. The injected Matrigel® forms a palpable solid gel. Injection sites are chosen such that each animal receives a positive control plug (such as FGF-2+heparin), a negative control plug (e.g., buffer+heparin) and a plug that includes the compound being tested for its effect on angiogenesis, e.g., (FGF-2+heparin+compound). […] Hemoglobin (Hb) levels are determined using Drabkin's solution (e.g., obtained from Sigma) according to the manufacturers' instructions. […] The amount of fluorescence in the dispersed plug, determined fluorimetrically, also serves as a measure of angiogenesis in the plug. […]
Matrigel® ([…]) on ice was mixed with heparin (50 mg/ml), FGF-2 (800 ng/ml), VEGF (300 ng/ml) and the test compound. […] Hemoglobin levels in the plugs were determined using Drabkin's solution according to the manufacturers' instructions (Sigma Chemicals). […]

SOD1 = molecular target: T3, SOD1 (Homo sapiens, UniProt P00441); experiment: SOD1 activity in treated tumors; format: in vivo; conditions: SOD1 protein unchanged (Western blot)
T3 construct: from tissue
T3 sequence (P00441 whole entry, species assumed): as the sequence (P00441 whole entry) above

[4] = Zn^2+, Fe^2+, Ca^2+, Mn^2+, Mg^2+; standard binding assays
[5] = system: intracellular copper levels
extracellular SOD = molecular target: T4, extracellular SOD (Homo sapiens, UniProt P08294); conditions: alcoholics, compared to untreated alcoholics and healthy control; cited from earlier work
T4 construct: DS administered to alcoholics reduced by 20% extracellular SOD activity
T4 sequence (P08294 19-240): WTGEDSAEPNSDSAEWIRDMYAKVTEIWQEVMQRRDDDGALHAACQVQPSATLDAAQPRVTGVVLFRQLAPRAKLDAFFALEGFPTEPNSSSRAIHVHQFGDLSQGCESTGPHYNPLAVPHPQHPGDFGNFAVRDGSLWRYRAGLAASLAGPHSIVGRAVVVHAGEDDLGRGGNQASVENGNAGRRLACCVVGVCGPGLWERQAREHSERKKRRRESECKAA

- inhibition of SOD1 activity in vitro (bovine SOD1 [1]): inhibited SOD1 activity
Compound: CN(C)C1=NCC(CSC(=N)N)S1 (stereo not drawn) [ATN-719]

- inhibition of SOD1 activity in vitro (bovine SOD1 [1]): inhibited SOD1 activity
Compound: c1csc(CSc2nc3ccccc3s2)c1 [ATN-714]

- inhibition of SOD1 activity in vitro (bovine SOD1 [1]): inhibited this reaction
- binding to CuZnSOD (Mo content of purified protein) (bovine SOD1 [2]): did not bind to CuZnSOD
- copper content of CuZnSOD (bovine SOD1 [2]): appreciable loss of copper
- inhibition of intracellular CuZnSOD (intracellular CuZnSOD; HUVECs, 3 concentrations, up to 24 hours): dose and time dependent inhibition
- effect of serum on intracellular CuZnSOD inhibition (intracellular CuZnSOD; increasing concentrations of serum): unaffected by the presence of serum
- SOD1 enzymatic activity in treated tumors (SOD1): reduced SOD1 enzymatic activity
- binding to other metal cations [4]: does not bind detectably
- inhibition of aldehyde dehydrogenase (aldehyde dehydrogenase): does not inhibit
Compound: C[N+](C)(C)CCO.C[N+](C)(C)CCO.[SH-].[SH-].[S]=[Mo]=[S] [ATN-224, choline tetrathiomolybdate]
- IC50 (HUVEC; FGF-2 driven, 72 hours, read-out: IC50, inhibition of HUVEC proliferation): 1 to 2 µM
- inhibition of FGF-2 driven proliferation with copper added (HUVEC; equimolar concentrations of copper added): completely abrogated
- inhibition of generation of superoxide ions in the assay (bovine SOD1 [1]; xanthine/xanthine oxidase): did not act by inhibiting generation of superoxide ions
- level of CuZnSOD protein (Western blot) (intracellular CuZnSOD; HUVEC lysates): did not affect the level of CuZnSOD protein
- DHE fluorescence (superoxide) [3]: strong fluorescence
- angiogenesis in Matrigel plugs (angiogenesis; compound in plug, 5 days): inhibited
- intracellular copper levels [5]: does not increase intracellular copper levels
- IL-8 expression (IL-8 expression): down-regulates IL-8 expression

- inhibition of SOD1 activity in vitro (bovine SOD1 [1]): inhibited SOD1 activity
- inhibition of SOD1 activity in vitro (bovine SOD1 [1]; listed as choline tetrathiotungstate): effective inhibitor of SOD1 activity
Compound: C[N+](C)(C)CCO.C[N+](C)(C)CCO.[S]=[W](=[S])([S-])[S-] [ATN-427, choline tetrathiotungstate]

Compound: O=C(O)c1ccc(/C2=C3\C=CC(=N3)/C(c3ccc(C(=O)O)cc3)=c3/cc/c4[n]3[Mn]([Cl])[n]3c2ccc3/C(c2ccc(C(=O)O)cc2)=C2/C=CC(=N2)\C=4c2ccc(C(=O)O)cc2)cc1 [MnTBAP, reference compound]
- reversal of ATN-224 inhibition of cell proliferation (HUVEC; 100 μM MnTBAP with ATN-224): abrogate most of the inhibition
- reversal of ATN-224 inhibition of angiogenesis (angiogenesis; MnTBAP with ATN-224 in plug): abrogated most of this inhibition

Compound: CCN(CC)C(=S)SSC(=S)N(CC)CC [DS, Tetraethylthiuram disulfide]
- reduction of extracellular SOD activity (extracellular SOD): 20%

- inhibition of SOD1 activity in vitro (bovine SOD1 [1]): inhibited SOD1 activity
Compound: O=C1CC(c2cccs2)Sc2ccccc2N1 (stereo not drawn) [ATN 722]
